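Growth conditions: 96-well plates. Treatment: test compound, 48 hours, 5 concentrations. Analysis: linear interpolation between bracketing concentrations; unreached endpoints set to highest concentration. TGI: concentration producing complete growth inhibition.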
Experiments:
Assay in all cases: NCI-60 cell line screen, 48 h
SF-539 CNS = system: SF-539 CNS
DU-145 prostate = system: DU-145 prostate
IGROV1 ovarian = system: IGROV1 ovarian
T-47D breast = system: T-47D breast
U251 CNS = system: U251 CNS
A549 NSCLC = system: A549 NSCLC
UACC-257 melanoma = system: UACC-257 melanoma
A498 renal = system: A498 renal
NCI-H522 lung = system: NCI-H522 lung
M14 melanoma = system: M14 melanoma
MDA-N = system: MDA-N
UO-31 renal = system: UO-31 renal
SNB-19 CNS = system: SNB-19 CNS
LOX IMVI melanoma = system: LOX IMVI melanoma
SK-OV-3 ovarian = system: SK-OV-3 ovarian
OVCAR-4 ovarian = system: OVCAR-4 ovarian
786-0 renal = system: 786-0 renal
SF-268 CNS = system: SF-268 CNS
HCC-2998 colon = system: HCC-2998 colon
COLO 205 colon = system: COLO 205 colon
NCI-H23 lung = system: NCI-H23 lung
NCI-H226 lung = system: NCI-H226 lung
NCI-H460 lung = system: NCI-H460 lung
SK-MEL-5 melanoma = system: SK-MEL-5 melanoma
HCT-15 colon = system: HCT-15 colon
UACC-62 melanoma = system: UACC-62 melanoma
HS 578T breast = system: HS 578T breast
SF-295 CNS = system: SF-295 CNS
EKVX NSCLC = system: EKVX NSCLC
MALME-3M melanoma = system: MALME-3M melanoma
SK-MEL-28 melanoma = system: SK-MEL-28 melanoma
SN12C renal = system: SN12C renal
OVCAR-8 ovarian = system: OVCAR-8 ovarian
MDA-MB-231 breast = system: MDA-MB-231 breast
CAKI-1 renal = system: CAKI-1 renal
TK-10 renal = system: TK-10 renal
RPMI-8226 leukemia = system: RPMI-8226 leukemia
ACHN renal = system: ACHN renal
SW-620 colon = system: SW-620 colon
MDA-MB-435 = system: MDA-MB-435
HOP-92 NSCLC = system: HOP-92 NSCLC
HCT-116 colon = system: HCT-116 colon
K-562 leukemia = system: K-562 leukemia
KM12 colon = system: KM12 colon
MOLT-4 leukemia = system: MOLT-4 leukemia
HT29 colon = system: HT29 colon
PC-3 prostate = system: PC-3 prostate
OVCAR-3 ovarian = system: OVCAR-3 ovarian
OVCAR-5 ovarian = system: OVCAR-5 ovarian
MCF7 breast = system: MCF7 breast
NCI/ADR-RES ovarian = system: NCI/ADR-RES ovarian
HL-60(TB) leukemia = system: HL-60(TB) leukemia
SK-MEL-2 melanoma = system: SK-MEL-2 melanoma
BT-549 breast = system: BT-549 breast
RXF 393 renal = system: RXF 393 renal
SNB-75 CNS = system: SNB-75 CNS
CCRF-CEM leukemia = system: CCRF-CEM leukemia
HOP-62 NSCLC = system: HOP-62 NSCLC

CC(=O)OCCn1c(Cc2ccc(C)cc2)nn(C(C)=O)c1=O
TGI (SF-539 CNS): > 100 µM | TGI (DU-145 prostate): > 100 µM | TGI (IGROV1 ovarian): > 100 µM | TGI (T-47D breast): > 100 µM | TGI (U251 CNS): > 100 µM | TGI (A549 NSCLC): > 100 µM | TGI (UACC-257 melanoma): > 100 µM | TGI (A498 renal): > 100 µM | TGI (NCI-H522 lung): > 100 µM | TGI (M14 melanoma): > 100 µM | TGI (MDA-N): > 100 µM | TGI (UO-31 renal): > 100 µM | TGI (SNB-19 CNS): > 100 µM | TGI (LOX IMVI melanoma): > 100 µM | TGI (SK-OV-3 ovarian): > 100 µM | TGI (OVCAR-4 ovarian): > 100 µM | TGI (786-0 renal): > 100 µM | TGI (SF-268 CNS): > 100 µM | TGI (HCC-2998 colon): > 100 µM | TGI (COLO 205 colon): > 100 µM | TGI (NCI-H23 lung): > 100 µM | TGI (NCI-H226 lung): > 100 µM | TGI (NCI-H460 lung): > 100 µM | TGI (SK-MEL-5 melanoma): > 100 µM | TGI (HCT-15 colon): > 100 µM | TGI (UACC-62 melanoma): > 100 µM | TGI (HS 578T breast): > 100 µM | TGI (SF-295 CNS): > 100 µM | TGI (EKVX NSCLC): > 100 µM | TGI (MALME-3M melanoma): > 100 µM | TGI (SK-MEL-28 melanoma): > 100 µM | TGI (SN12C renal): > 100 µM | TGI (OVCAR-8 ovarian): > 100 µM | TGI (MDA-MB-231 breast): > 100 µM | TGI (CAKI-1 renal): > 100 µM | TGI (TK-10 renal): > 100 µM | TGI (RPMI-8226 leukemia): > 100 µM | TGI (ACHN renal): > 100 µM | TGI (SW-620 colon): > 100 µM | TGI (MDA-MB-435): > 100 µM | TGI (HOP-92 NSCLC): > 100 µM | TGI (HCT-116 colon): > 100 µM | TGI (K-562 leukemia): > 100 µM | TGI (KM12 colon): > 100 µM | TGI (MOLT-4 leukemia): > 100 µM | TGI (HT29 colon): > 100 µM | TGI (PC-3 prostate): > 100 µM | TGI (OVCAR-3 ovarian): > 100 µM | TGI (OVCAR-5 ovarian): > 100 µM | TGI (MCF7 breast): > 100 µM | TGI (NCI/ADR-RES ovarian): > 100 µM | TGI (HL-60(TB) leukemia): > 100 µM | TGI (SK-MEL-2 melanoma): > 100 µM | TGI (BT-549 breast): > 100 µM

CCOP(=O)(CN1CCNCCN(CP(=O)(OCC)OCC)CC1)OCC
TGI (SF-539 CNS): > 100 µM | TGI (DU-145 prostate): > 100 µM | TGI (IGROV1 ovarian): > 100 µM | TGI (RXF 393 renal): > 100 µM | TGI (T-47D breast): > 100 µM | TGI (U251 CNS): > 100 µM | TGI (A549 NSCLC): > 100 µM | TGI (UACC-257 melanoma): > 100 µM | TGI (A498 renal): > 100 µM | TGI (NCI-H522 lung): > 100 µM | TGI (M14 melanoma): > 100 µM | TGI (MDA-N): > 100 µM | TGI (UO-31 renal): > 100 µM | TGI (SNB-19 CNS): > 100 µM | TGI (LOX IMVI melanoma): > 100 µM | TGI (SK-OV-3 ovarian): > 100 µM | TGI (OVCAR-4 ovarian): > 100 µM | TGI (786-0 renal): > 100 µM | TGI (SF-268 CNS): > 100 µM | TGI (COLO 205 colon): > 100 µM | TGI (NCI-H23 lung): > 100 µM | TGI (NCI-H226 lung): > 100 µM | TGI (NCI-H460 lung): > 100 µM | TGI (SK-MEL-5 melanoma): > 100 µM | TGI (HCT-15 colon): > 100 µM | TGI (UACC-62 melanoma): > 100 µM | TGI (HS 578T breast): > 100 µM | TGI (SF-295 CNS): > 100 µM | TGI (EKVX NSCLC): > 100 µM | TGI (MALME-3M melanoma): > 30.4 µM | TGI (SNB-75 CNS): > 100 µM | TGI (SK-MEL-28 melanoma): > 100 µM | TGI (SN12C renal): > 100 µM | TGI (OVCAR-8 ovarian): > 100 µM | TGI (CCRF-CEM leukemia): > 31.6 µM | TGI (MDA-MB-231 breast): > 100 µM | TGI (CAKI-1 renal): > 100 µM | TGI (TK-10 renal): > 100 µM | TGI (RPMI-8226 leukemia): > 100 µM | TGI (HOP-62 NSCLC): > 100 µM | TGI (ACHN renal): > 100 µM | TGI (SW-620 colon): > 100 µM | TGI (MDA-MB-435): > 100 µM | TGI (HOP-92 NSCLC): > 100 µM | TGI (HCT-116 colon): > 100 µM | TGI (K-562 leukemia): > 100 µM | TGI (KM12 colon): > 100 µM | TGI (MOLT-4 leukemia): > 100 µM | TGI (HT29 colon): > 100 µM | TGI (PC-3 prostate): > 100 µM | TGI (OVCAR-3 ovarian): > 100 µM | TGI (OVCAR-5 ovarian): > 100 µM | TGI (MCF7 breast): > 100 µM | TGI (NCI/ADR-RES ovarian): > 100 µM | TGI (HL-60(TB) leukemia): > 100 µM | TGI (SK-MEL-2 melanoma): > 100 µM | TGI (BT-549 breast): > 100 µM

O=C1NC(N/N=C/c2cccs2)=N/C1=C\c1ccco1
TGI (SF-539 CNS): > 100 µM | TGI (DU-145 prostate): > 100 µM | TGI (IGROV1 ovarian): > 100 µM | TGI (RXF 393 renal): > 100 µM | TGI (T-47D breast): > 100 µM | TGI (U251 CNS): > 100 µM | TGI (A549 NSCLC): > 100 µM | TGI (UACC-257 melanoma): > 100 µM | TGI (A498 renal): 82.5 µM | TGI (NCI-H522 lung): 39.9 µM | TGI (M14 melanoma): > 100 µM | TGI (MDA-N): 13.6 µM | TGI (UO-31 renal): > 100 µM | TGI (SNB-19 CNS): > 100 µM | TGI (LOX IMVI melanoma): > 100 µM | TGI (SK-OV-3 ovarian): 70.6 µM | TGI (OVCAR-4 ovarian): > 100 µM | TGI (786-0 renal): > 100 µM | TGI (SF-268 CNS): > 100 µM | TGI (COLO 205 colon): > 100 µM | TGI (NCI-H23 lung): > 100 µM | TGI (NCI-H226 lung): > 100 µM | TGI (NCI-H460 lung): > 100 µM | TGI (SK-MEL-5 melanoma): > 100 µM | TGI (HCT-15 colon): > 100 µM | TGI (UACC-62 melanoma): > 100 µM | TGI (HS 578T breast): 76.7 µM | TGI (SF-295 CNS): > 100 µM | TGI (EKVX NSCLC): > 100 µM | TGI (MALME-3M melanoma): > 100 µM | TGI (SNB-75 CNS): > 100 µM | TGI (SK-MEL-28 melanoma): > 100 µM | TGI (SN12C renal): > 100 µM | TGI (OVCAR-8 ovarian): > 100 µM | TGI (CCRF-CEM leukemia): > 100 µM | TGI (MDA-MB-231 breast): > 100 µM | TGI (CAKI-1 renal): > 100 µM | TGI (TK-10 renal): > 100 µM | TGI (RPMI-8226 leukemia): 94.8 µM | TGI (HOP-62 NSCLC): > 100 µM | TGI (ACHN renal): > 100 µM | TGI (SW-620 colon): > 100 µM | TGI (MDA-MB-435): 90.4 µM | TGI (HOP-92 NSCLC): > 100 µM | TGI (HCT-116 colon): > 100 µM | TGI (K-562 leukemia): > 100 µM | TGI (KM12 colon): > 100 µM | TGI (MOLT-4 leukemia): > 100 µM | TGI (HT29 colon): > 100 µM | TGI (PC-3 prostate): > 100 µM | TGI (OVCAR-3 ovarian): 74.4 µM | TGI (OVCAR-5 ovarian): > 100 µM | TGI (MCF7 breast): > 100 µM | TGI (NCI/ADR-RES ovarian): > 100 µM | TGI (HL-60(TB) leukemia): > 100 µM | TGI (SK-MEL-2 melanoma): 62.4 µM | TGI (BT-549 breast): > 100 µM
